# Test results as given in patent US7119062B1, “Methods and compositions for improved articular surgery using collagen” (Neucoll, Inc., priority 2001, dated 2006).
# Read-outs that look alike come from different tables or passages of the source.
# Tests used:
# [1] = standard mutagenicity and clastogenicity assays; cited from earlier work
# [2] = Anesthetic effect of lidocaine in intra-articular collagen injections; type: in vivo; settings: 1 mL intra-articular injections of collagen formulation with 0.3% lidocaine
# [3] = cited from earlier work
# [4] = in vivo
# research monkeys = settings: cited from earlier work
# [5] = adults; cited from earlier work
# [6] = cited from earlier work; remark: listed apart in the source
# mice = settings: cited from earlier work
molecule,measurement,setting,value
CCCCN1CCCC[C@H]1C(=O)Nc1c(C)cccc1C [levobupivacaine],genotoxicity,[1],non-genotoxic
CCN(CC)CC(=O)Nc1c(C)cccc1C [lidocaine],duration of anesthetic effects of lidocaine,[2],less than an hour
same,"duration of anesthetic effects of lidocaine, in most cases",[2]; in most cases,less than 10 minutes
same,dosage required to achieve the same clinical efficacy as bupivacaine,"[3]; equivalent indications, relative to bupivacaine",2 to 10 times
collagen,time collagen remains in the knee joints,[4],up to 8 weeks
CCCCN1CCCCC1C(=O)Nc1c(C)cccc1C (stereo not shown) [bupivacaine],single dose that produced seizures,research monkeys,4.4 mg/kg
same,half life,[5],approximately 3.5 hours
same,maximum dose,[6]; over a 24 hour period,400 mg
same,therapeutic apparently safe dose,[6]; single bolus,approximately 225 mg
same,change in VAS pain scores at 1 hour,"[3]; 12.5 mg intra-articular, knees of osteoarthritis patients, 1 hour post-administration",statistically significant (p=0.007) fall
same,effect on VAS pain scores after 1 hour,"[3]; 12.5 mg intra-articular, knees of osteoarthritis patients, after 1 hour",no significant effects
same,duration of analgesia,[3]; intra-articular injection,2 to 12 h
same,intra-articular dose that produces analgesia of the joint,[3]; intra-articular,approximately 10 mg
same,duration of pain relief,[3]; local anesthetic injected into the operated joint at the end of arthroscopy,about 6 hours
same,LD50,mice; intravenous,6 to 8 mg/kg
same,LD50,mice; subcutaneous,38 to 54 mg/kg
